From the supplement of paper PMC10307832

How the values were obtained:
Experiment in all cases: relative viability (nuclei count vs DMSO), 5 days (fraction); higher = more cells survive
[1] = compound: CNC(=O)c1cc(Oc2ccc(NC(=O)Nc3ccc(Cl)c(C(F)(F)F)c3)cc2)ccn1 [Sorafenib] + Nc1nc2[nH]cc(CCc3ccc(C(=O)N[C@@H](CCC(=O)O)C(=O)O)cc3)c2c(=O)[nH]1 [Pemetrexed] (partner 0.2 µM)
How it was run: (§1)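 The day after seeding in 1536-well plates, lung cancer cell lines were treated by pin tool with a single drug, or with a fixed anchor-drug dose together with five library-drug doses (not always all listed) in √10 steps. After 5 days, a combined fix-and-stain solution (final 0.05% Triton X-100, 1% formaldehyde, 1 ug/ml Hoechst) was added. Nuclei counted on 4× images gave relative viability as treated counts over vehicle counts, reported as the median of duplicate plates.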

[2] = compound: CNC(=O)c1cc(Oc2ccc(NC(=O)Nc3ccc(Cl)c(C(F)(F)F)c3)cc2)ccn1 [Sorafenib] + Nc1ncn([C@H]2C[C@H](O)[C@@H](CO)O2)c(=O)n1 [Decitabine] (partner 2 µM)
How it was run: as §1

[3] = compound: CNC(=O)c1cc(Oc2ccc(NC(=O)Nc3ccc(Cl)c(C(F)(F)F)c3)cc2)ccn1 [Sorafenib] + NC(=O)Nc1cc(-c2cccc(F)c2)sc1C(=O)N[C@H]1CCCNC1 [AZD7762] (partner 0.2 µM)
How it was run: as §1

[4] = compound: CNC(=O)c1cc(Oc2ccc(NC(=O)Nc3ccc(Cl)c(C(F)(F)F)c3)cc2)ccn1 [Sorafenib] + CC(=O)Nc1cccc(-n2c(=O)n(C3CC3)c(=O)c3c(Nc4ccc(I)cc4F)n(C)c(=O)c(C)c32)c1 [Trametinib] (partner 0.02 µM)
How it was run: as §1

[5] = compound: CNC(=O)c1cc(Oc2ccc(NC(=O)Nc3ccc(Cl)c(C(F)(F)F)c3)cc2)ccn1 [Sorafenib] + CS(=O)(=O)N1CCN(Cc2cc3nc(-c4cccc5[nH]ncc45)nc(N4CCOCC4)c3s2)CC1 [Pictilisib] (partner 1 µM)
How it was run: as §1

Cell Line	relative viability ([1]; first compound 0.08 µM)	relative viability ([1]; first compound 0.253 µM)	relative viability ([1]; first compound 2.53 µM)	relative viability ([1]; first compound 8 µM)	relative viability ([2]; first compound 0.08 µM)	relative viability ([2]; first compound 0.253 µM)	relative viability ([2]; first compound 2.53 µM)	relative viability ([2]; first compound 8 µM)	relative viability ([3]; first compound 0.08 µM)	relative viability ([3]; first compound 0.253 µM)	relative viability ([3]; first compound 2.53 µM)	relative viability ([3]; first compound 8 µM)	relative viability ([4]; first compound 0.08 µM)	relative viability ([4]; first compound 0.253 µM)	relative viability ([4]; first compound 2.53 µM)	relative viability ([4]; first compound 8 µM)	relative viability ([5]; first compound 0.08 µM)	relative viability ([5]; first compound 0.253 µM)	relative viability ([5]; first compound 2.53 µM)	relative viability ([5]; first compound 8 µM)
NCI-H1355	1.04	0.953	1.02	0.963	0.353	0.308	0.336	0.321	0.805	0.713	0.651	0.546	0.493	0.419	0.42	0.264	0.444	0.465	0.45	0.346
NCI-H1975	0.3	0.285	0.294	0.209	0.431	0.383	0.365	0.353	0.807	0.633	0.803	0.809	0.526	0.32	0.291	0.242	0.312	0.308	0.376	0.286
H3255	0.636	0.554	0.587	0.47	0.656	0.523	0.593	0.366	1.02	0.799	0.937	0.716	0.619	0.563	0.463	0.364	0.525	0.434	0.521	0.305
NCI-H1993	0.566	0.597	0.528	0.43		0.478	0.665	0.489	0.793	0.763	0.913	0.397	0.515	0.521	0.529	0.506	0.833	0.788	0.707	0.677
NCI-H441	0.283	0.234	0.257	0.227	0.23	0.146	0.207	0.277	1.03	0.946	0.841	0.855	0.564	0.408	0.457	0.27	0.524	0.476	0.409	0.445
